# Values joined by “and” are separate entries in the source; they are usually repeats but may differ in a detail not shown here. Equal values may be shown once.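 1) Cells in 96-well plates. 2) Compound, 48 h, 5 concentrations. 3) Linear interpolation between surrounding doses. 4) Unreached endpoint = highest concentration. GI50 marks 50% less growth. TGI: concentration producing complete growth inhibition.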
# Key:
# Assay in all cases: NCI-60 cell line screen, 48 h
# K-562 leukemia = tested on: K-562 leukemia
# SNB-75 CNS = tested on: SNB-75 CNS
# OVCAR-5 ovarian = tested on: OVCAR-5 ovarian
# SNB-19 CNS = tested on: SNB-19 CNS
# SW-620 colon = tested on: SW-620 colon
# SR leukemia = tested on: SR leukemia
# OVCAR-8 ovarian = tested on: OVCAR-8 ovarian
# RXF 393 renal = tested on: RXF 393 renal
# HS 578T breast = tested on: HS 578T breast
# HT29 colon = tested on: HT29 colon
Compound,GI50 (K-562 leukemia),TGI (K-562 leukemia) [µM],GI50 (SNB-75 CNS),TGI (SNB-75 CNS) [µM],GI50 (OVCAR-5 ovarian) [µM],TGI (OVCAR-5 ovarian) [µM],GI50 (SNB-19 CNS),TGI (SNB-19 CNS) [µM],GI50 (SW-620 colon),TGI (SW-620 colon) [µM],GI50 (SR leukemia),TGI (SR leukemia) [µM],GI50 (OVCAR-8 ovarian),TGI (OVCAR-8 ovarian) [µM],GI50 (RXF 393 renal) [µM],GI50 (HS 578T breast),TGI (HS 578T breast) [µM],GI50 (HT29 colon),TGI (HT29 colon) [µM],TGI (RXF 393 renal) [µM]
CC[C@H](C)[C@H](NC(=O)[C@H]1CCCCN1C)C(=O)N(C)[C@H](C[C@@H](OC(C)=O)c1cccc(C(=O)N[C@@H](Cc2ccccc2)C[C@H](C)C(=O)OC)n1)C(C)C,0.00243 µM and 0.0025 µM,> 25,0.00366 µM and 0.00479 µM,> 25,0.0137,> 25,0.00461 µM and 0.0025 µM,> 25,0.00317 µM and 0.0025 µM,> 25,0.00055 µM and 0.0025 µM,> 25,0.00797 µM and 0.0056 µM,> 25,0.00316,0.0423 µM and 0.00613 µM,> 25,0.00182 µM and 0.0025 µM,0.0421,
Fc1ccc(-c2c(-c3ccncc3)nc3n2CCS3)cc1,> 25 µM,> 25,> 25 µM,> 25,> 25,> 25,> 25 µM,> 25,> 25 µM,> 25,> 25 µM,> 25,> 25 µM,> 25,> 12.9,> 25 µM,> 25,> 25 µM,> 25,> 25
Cc1ccc(O)c(NC(=O)c2cccc(Nc3ccnc(C(F)(F)F)c3)c2)c1,,,11.4 µM,25.3,13,36,17.9 µM,69.8,14.6 µM,38.5,1.02 µM,16.4,5.52 µM,19.7,,16.1 µM,40.3,15.7 µM,33.4,
Cc1onc(-c2ccccc2)c1C(=O)N/N=C/c1cc(Cl)cc(Cl)c1O,4.58 µM,55.9,6.75 µM,> 100,8.65,> 100,4.12 µM,> 100,6.81 µM,> 100,3.74 µM,25.1,3.59 µM,> 100,7.72,17.8 µM,> 100,8.63 µM,58.7,> 100
COc1ccc(/C=C\c2cc(OC)c(OC)c(OC)c2)cc1OCC(=O)Nc1nc2ccc(F)cc2s1,3.62 µM,> 100,4.39 µM,> 100,> 100,> 100,> 100 µM,> 100,65.1 µM,> 100,2.19 µM,> 100,7.15 µM,> 100,6.29,> 100 µM,> 100,9.63 µM,> 100,> 100
Oc1c(Cl)cc(Cl)c(Cl)c1CNCCNCc1c(O)c(Cl)cc(Cl)c1Cl,0.483 µM,> 50,2.43 µM,10.6,2.49,29,1.49 µM,11.3,1.71 µM,> 50,0.622 µM,> 50,0.911 µM,7.72,1.41,5.32 µM,27.9,5.83 µM,> 50,6.74
CC(C)(C)C(=O)OCOP(=O)(NCc1ccccc1)C1CCCN(O)C1=O (stereo unspecified),1.13 µM,> 100,4.97 µM,39.1,8.99,> 100,3.12 µM,24.9,2.87 µM,> 100,0.985 µM,> 100,1.17 µM,> 100,1.76,1.28 µM,6.64,3.35 µM,61.9,6.48
Cc1nc([N+](=O)[O-])cn1-c1nc2ccccn2c1[N+](=O)[O-],,> 100,,63.7,,> 100,,> 100,,> 100,,> 100,,> 100,,,> 100,,> 100,44.5
CN(Cc1ccccc1)Cn1ccnc1,,> 100,,> 100,,> 100,,> 100,,> 100,,> 66.8,,> 100,,,> 100,,> 100,> 100
Cc1cnc2n1S(=O)(=O)c1cc(C(=O)Nc3cccc4nsnc34)c(Cl)cc1S2,40.8 µM,> 100,25.6 µM,62.3,54,> 100,27.2 µM,60.8,19.1 µM,37.2,29.1 µM,> 100,33.6 µM,> 100,12.9,24.5 µM,63.3,32.3 µM,93.8,29.4
CC(C)C[C@H](NC(=O)CNC(=O)c1cc(Cl)ccc1Cl)B(O)O,0.03 µM,1.21,0.0256 µM,0.124,0.0493,0.551,0.273 µM,> 87.8,< 0.0173 µM,,< 0.0152 µM,0.385,0.0659 µM,15.3,< 0.0138,0.0489 µM,> 50.4,< 0.0155 µM,0.0616,0.0356
Cc1c(-c2cnccn2)ssc1=S,,> 100,,59.8,,> 100,,> 100,,> 100,,> 100,,> 100,,,91.8,,> 100,80.9
C=C(c1ccc(OC)c(/C=C/C(=O)c2ccc3c(c2)OCO3)c1)c1cc(OC)c(OC)c(OC)c1,0.783 µM,13.9,1.64 µM,7.08,4.4,> 100,2.79 µM,> 100,,,0.907 µM,> 100,2.89 µM,18.2,1.98,4.65 µM,> 100,2.98 µM,10.4,5.17
Cc1cc2c(C(=O)NC[C@H](C)c3ccccc3)c(O)c(O)cc2c(O)c1-c1c(C)cc2c(C(=O)NC[C@H](C)c3ccccc3)c(O)c(O)cc2c1O,0.17 µM,7.69,0.251 µM,1.98,0.503,5.03,0.0605 µM,4.3,0.482 µM,5.7,0.376 µM,4.51,0.588 µM,10.1,0.197,0.274 µM,2.56,0.355 µM,11,0.895
COc1ccc(C2(Cl)c3ccccc3N(c3ccccc3)c3ccccc32)cc1,0.335 µM,12,0.359 µM,2.05,2.19,7.64,0.637 µM,2.43,0.37 µM,1.69,0.357 µM,3.28,0.203 µM,2.7,0.718,0.407 µM,17.2,0.306 µM,2.3,2.56
COc1cc2c(cc1OC(C)C)[C@H](c1ccc(Cl)cc1)N(c1ccc(N(C)CC3CCC(N4CCN(C)C(=O)C4)CC3)cc1)C(=O)C2 (stereo partly specified),3.56 µM,16.9,2.95 µM,8.68,2.66,9.58,4.07 µM,14.7,4.6 µM,10,0.123 µM,1.97,5.86 µM,20.3,2.66,3.48 µM,13.1,2.7 µM,7.79,7.92
O=C1NC(=C(Cl)Cl)/C(=N/S(=O)(=O)N2CCCCC2)N1,,,1.76 µM,3.77,1.87,3.63,2.38 µM,5.34,2.11 µM,4.17,1.5 µM,3.89,2.1 µM,4.6,1.84,3.18 µM,10.7,1.99 µM,3.98,3.39
Cc1cc2nc(NCCN)n(Cc3ccc(F)c(Cl)c3)c2cc1C,2.57 µM,6.97,10.6 µM,23.4,13.7,28.3,13.6 µM,28.6,3.31 µM,10.8,2.03 µM,6.04,17 µM,33.1,,11.8 µM,28.2,11.7 µM,24.5,
CCc1cccc(C(C)C)c1NC(=O)C(=O)C1C(=O)Nc2ccccc2S1=O (stereo unspecified),,,,> 100,,> 100,,> 100,,> 100,,> 100,,> 100,,,> 100,,> 100,> 100
COc1cc(C2C(Cl)C(=O)N2NC(=O)Cc2ccccc2)cc(Br)c1O (stereo unspecified),,> 100,,> 100,,> 100,,> 100,,> 100,,> 100,,> 100,,,,,> 100,> 100

# From PubChem BioAssay (NCI)
